Test results taken from ChEMBL document CHEMBL1857833, “Screening and optimization of specific chemical series against human African Trypanosomiasis (HAT)”.
Converted amounts (≈) assume the structure as drawn.

Legend:
Trypanosoma brucei = experiment: DNDI: Inhibition of Human African Trypanosomiasis, SBRI 427, in vitro; format: functional, organism-based; settings: Trypanosoma brucei, SBRI 427; read-out: IC50
[1] = DNDI: Cytotoxicity against L929 mouse fibroblasts, CYTO-SP, 24 hour; format: toxicity, cell-based; settings: mouse, L929 mouse fibroblasts

| Compound | IC50 (Trypanosoma brucei) [µg/mL] | IC50 at 24 h [1] [µg/mL] |
| --- | --- | --- |
| O/N=C(\NCC1CCCCC1)c1cccnc1Oc1ccc(Cl)cc1 | 0.92 (≈ 2.56 µM) | > 50 |
| O/N=C(\NC1CCC1)c1cccnc1OCC1CCCCC1 | 0.64 (≈ 2.11 µM) | > 50 |
| COc1ccc(Oc2ncccc2/C(=N/O)NCC(C)(C)C)cc1 | 0.18 (≈ 0.546 µM) | > 50 |
| CCC(CC)N/C(=N\O)c1cccnc1Oc1ccc(OC)cc1 | 0.78 (≈ 2.37 µM) | > 50 |
| O/N=C(\NC1CCC1)c1cccnc1Oc1ccc2c(c1)CCCC2 | 0.19 (≈ 0.563 µM) | > 50 |
| Cc1ccc(Oc2ncccc2/C(=N/O)NCC(C)C)c2c1CCC2 | 0.55 (≈ 1.62 µM) | > 50 |
| CC1CCC(N/C(=N\O)c2cccnc2Oc2ccccc2OC(C)C)CC1 (configuration not stated) | 0.55 (≈ 1.43 µM) | > 50 |
| COc1cccc(CN/C(=N\O)c2cccnc2Oc2ccc(Cl)cc2)c1 | 1.1 (≈ 2.87 µM) | > 50 |
| Cc1cc(C)cc(CN/C(=N\O)c2cccnc2Oc2c(F)cccc2F)c1 | 1.08 (≈ 2.82 µM) | > 50 |
| COc1ccc(Oc2ncccc2/C(=N/O)NCC2CC2)cc1 | 0.34 (≈ 1.09 µM) | > 50 |
| O/N=C(\NC1CCCC1)c1cccnc1Oc1c(F)cccc1F | 0.23 (≈ 0.69 µM) | > 50 |
| O/N=C(\NCc1ccccc1)c1cccnc1Oc1cc(Cl)ccc1Cl | 0.77 (≈ 1.98 µM) | > 50 |
| CC(C)COc1ncccc1/C(=N/O)NCC(C)(C)C | 1.12 (≈ 4.01 µM) | > 50 |
| COCCN/C(=N\O)c1cccnc1Oc1ccc(C(C)C)cc1 | 1.04 (≈ 3.16 µM) | > 50 |
| CCOc1ccccc1CN/C(=N\O)c1cccnc1Oc1ccc(C)c2c1CCC2 | 0.73 (≈ 1.75 µM) | > 50 |
| Cc1ccccc1CN/C(=N\O)c1cccnc1Oc1cc(Cl)ccc1Cl | 1.06 (≈ 2.63 µM) | 33.6 (≈ 83.6 µM) |
| CCc1ccc(Oc2ncccc2/C(=N/O)NCCOC)cc1 | 1.12 (≈ 3.55 µM) | > 50 |
| CC1CC(N/C(=N\O)c2cccnc2Oc2cc(Cl)ccc2Cl)CC(C)(C)C1 (configuration not stated) | 0.03 (≈ 0.071 µM) | 30.9 (≈ 73.2 µM) |
| CC1CC(N/C(=N\O)c2cccnc2Oc2c(F)cccc2F)CC(C)(C)C1 (configuration not stated) | 1.12 (≈ 2.88 µM) | 31.5 (≈ 80.9 µM) |

More lines, main results first:

| IC50 (Trypanosoma brucei) [µg/mL] | Compound | IC50 at 24 h [1] [µg/mL] |
| --- | --- | --- |
| 0.81 (≈ 2.13 µM) | Cc1ccc(Oc2ncccc2/C(=N/O)NC2CCC(C)CC2)c2c1CCC2 (configuration not stated) | 32.5 (≈ 85.5 µM) |
| 1.09 (≈ 2.87 µM) | Cc1ccc(Oc2ncccc2/C(=N/O)NCc2cccs2)c2c1CCC2 | > 50 |
| 0.58 (≈ 1.74 µM) | CC(C)(C)CN/C(=N\O)c1cccnc1Oc1ccc(Cl)cc1 | > 50 |
| 0.21 (≈ 0.622 µM) | Cc1ccc(Oc2ncccc2/C(=N/O)NCC2CC2)c2c1CCC2 | > 50 |
| 1.02 (≈ 2.76 µM) | Cc1ccccc1CN/C(=N\O)c1cccnc1Oc1c(F)cccc1F | > 50 |
| 0.15 (≈ 0.458 µM) | COc1ccc(Oc2ncccc2/C(=N/O)NC2CCCC2)cc1 | > 50 |
| 0.37 (≈ 1.05 µM) | CCC(CC)N/C(=N\O)c1cccnc1Oc1ccc(C)c2c1CCC2 | > 50 |
| 1.15 (≈ 2.94 µM) | O/N=C(\NCc1c(F)cccc1F)c1cccnc1Oc1c(F)cccc1F | > 50 |
| 0.73 (≈ 1.79 µM) | CC(C)N1CCN(/C(=N\O)c2cccnc2Oc2cccc(C(F)(F)F)c2)CC1 | > 50 |
| 0.91 (≈ 2.52 µM) | O/N=C(\NCC1CCCCC1)c1cccnc1Oc1c(F)cccc1F | > 50 |
| 0.46 (≈ 1.25 µM) | CC(C)Oc1ccccc1Oc1ncccc1/C(=N/O)NC1CCCCC1 | > 50 |
| 0.39 (≈ 1.16 µM) | CC(C)(C)CN/C(=N\O)c1cccnc1Oc1c(F)cccc1F | 45.4 (≈ 135 µM) |
| 0.28 (≈ 0.894 µM) | COc1ccc(Oc2ncccc2/C(=N/O)NC2CCC2)cc1 | > 50 |
| 1.06 (≈ 2.58 µM) | CC1CC(N/C(=N\O)c2cccnc2Oc2ccccc2OC(C)C)CC(C)(C)C1 (configuration not stated) | > 50 |
| 0.99 (≈ 2.74 µM) | CC1CCC(N/C(=N\O)c2cccnc2Oc2c(F)cccc2F)CC1 (configuration not stated) | > 50 |
| 0.07 (≈ 0.172 µM) | CC1CC(N/C(=N\O)c2cccnc2Oc2ccc(F)c(Cl)c2)CC(C)(C)C1 (configuration not stated) | 28.2 (≈ 69.4 µM) |
| 0.31 (≈ 0.924 µM) | CCC(CC)N/C(=N\O)c1cccnc1Oc1c(F)cccc1F | > 50 |
